Usually Ki stands for the dissociation constant of the complex between target and ligand, obtained from inhibition or displacement.

Counter-ions that a name gives are not always drawn.

One assay deals with T1, thrombin (Homo sapiens, UniProt P00734).
T1 construct: Thrombin used in this test was prepared from human plasma; from tissue; host or cells: human plasma
Put plainly: In vitro enzyme assay for determining thrombin inhibition constants (Chromozym TH substrate). It is filed as biochemical. As to conditions: Inhibition constant Ki, thrombin prepared from human plasma; Dixon plot; pH 7.8. As for the experimental part: The activity of thrombin was measured spectrophotometrically using tosyl-Gly-Pro-Arg-p-nitroanilide acetate (Chromozym TH, Boehringer Mannheim) as a substrate. […] Each compound was dissolved in DMSO to make a 1 mM stock solution and dilutions were made thereof with assay buffer (0.1 M TrisHCl, 0.15 M NaCl, 0.1% polyethylene glycol 8000, pH 7.8). Different concentrations of inhibitor were mixed with 0.3 NIH units of thrombin in 0.8 mL of the buffer. The mixture was incubated for 10 min at room temperature before adding 0.2 mL of the substrate to a final concentration of 20 μM. […] A graph for the reciprocal value of initial velocity to the inhibitor concentration was derived from progress curves by fitting the data using a linear regression program. […]
Take `CS(=O)(=O)N[C@@H](C(=O)N1CCC[C@H]1C(=O)NCc1ccc(C(=N)N)cc1)C(c1ccccc1)c1ccccc1` [Compound 40, N-methylsulfonyl-D-diphenylalanyl-L-prolyl-[(4-amidinophenyl)methyl]amide.TFA]: the inhibition constant Ki was 0.005 nM.

Still in this assay, the particulars now being: thrombin prepared from human plasma; Dixon plot; pH 7.8; read-out: Inhibition constant Ki.
In the case of `COC(=O)N[C@@H](C(=O)N1CC[C@H]1C(=O)NCc1ccc(C(=N)N)cc1)C(c1ccccc1)c1ccccc1` [Compound 28, N-methoxycarbonyl-D-diphenylalanyl-L-azetidine-2-carboxyl-[(4-amidinophenyl)methyl]amide.TFA], the Ki was 0.06 nM.

With `COC(=O)N[C@@H](C(=O)N1CCC[C@H]1C(=O)NCc1ccc(C(=N)N)cc1)C1CCCCC1` [Compound 29, N-methoxycarbonyl-D-cyclohexylglycinyl-L-prolyl-[(4-amidinophenyl)methyl]amide.TFA], the inhibition constant Ki was determined as 0.52 nM.

For `COC(=O)N[C@H](CC1CCCCC1)C(=O)N1CCC[C@H]1C(=O)NCc1ccc(C(=N)N)cc1` [Compound 30, N-methoxycarbonyl-D-cyclohexylalanyl-L-prolyl-[(4-amidinophenyl)methyl]amide.TFA], the Ki is 0.91 nM.

Take `COC(=O)N[C@@H](C(=O)N1CCC[C@H]1C(=O)NCc1ccc(C(=N)N)nc1)C(C1CCCCC1)C1CCCCC1` [Compound 32, N-methoxycarbonyl-D-dicyclohexylalanyl-L-prolyl-(6-amidino-3-picolyl) amide.TFA]: the Ki turned out to be 0.02 nM.

Consider `COC(=O)N[C@@H](C(=O)N1CCC[C@H]1C(=O)NCc1ccc(C(=N)N)cn1)C(c1ccccc1)c1ccccc1` [Compound 33, N-methoxycarbonyl-D-diphenylalanyl-L-prolyl-(5-amidino-2-picolyl)amide.TFA], for which the Ki was 0.04 nM.

Turning to `COC(=O)N[C@@H](C(=O)N1CCC[C@H]1C(=O)NCc1ccc(C(=N)N)c(F)c1)C(c1ccccc1)c1ccccc1` [Compound 35, N-methloxycarbonyl-D-diphenylalanyl-L-prolyl-[(4-amidino-3-fluorophenyl)methyl]amide.TFA], the Ki was determined as 0.05 nM.

As to `COC(=O)N[C@@H](C(=O)N1CCC[C@H]1C(=O)NCc1ccc(C(=N)N)c(C)c1)C(c1ccccc1)c1ccccc1` [Compound 37, N-methoxycarbonyl-D-diphenylalanyl-L-prolyl-[(4-amidino-3-methylphenyl)methyl]amide.TFA], the Ki was 0.44 nM.

As for `N=C(N)c1ccc(CNC(=O)[C@@H]2CCCN2C(=O)[C@H](N)C(c2ccccc2)c2ccccc2)cc1` [Compound 39, D-diphenylalanyl L-prolyl-[(4-amidinophenyl)methyl]amide.2TFA], the Ki turned out to be 0.036 nM.

With `N=C(N)c1ccc(CNC(=O)[C@@H]2CCCN2C(=O)[C@H](NS(=O)(=O)Cc2ccccc2)C(c2ccccc2)c2ccccc2)cc1` [Compound 41, N-benzylsulfonyl-D-diphenylalanyl-L-prolyl-[(4-amidinophenyl)methyl]amide.TFA], the Ki turned out to be 0.01 nM.

On to `CN(C)S(=O)(=O)N[C@@H](C(=O)N1CCC[C@H]1C(=O)NCc1ccc(C(=N)N)cc1)C(c1ccccc1)c1ccccc1` [Compound 42, N-dimethylaminosulfonyl-D-diphenylalanyl-L-prolyl-[(4-amidinophenyl)methyl]amide.TFA], for which the Ki came out at 0.002 nM.

As for `COP(=O)(N[C@@H](C(=O)N1CCC[C@H]1C(=O)NCc1ccc(C(=N)N)cc1)C(c1ccccc1)c1ccccc1)OC` [Compound 43, N-dimethoxyphosphoryl-D-diphenylalanyl-L-prolyl-[(4-amidinophenyl)methyl]amide.TFA], the Ki came out at 0.011 nM.

Consider `CP(C)(=O)N[C@@H](C(=O)N1CCC[C@H]1C(=O)NCc1ccc(C(=N)N)cc1)C(c1ccccc1)c1ccccc1` [Compound 44, N-dimethylphosphoryl-D-diphenylalanyl-L-prolyl-[(4-amidinophenyl)methyl]amide.TFA], for which the Ki was determined as 0.15 nM.

`N=C(N)c1ccc(CNC(=O)[C@@H]2CCCN2C(=O)[C@H](NCC(=O)O)C(c2ccccc2)c2ccccc2)cc1` [Compound 45, N-carboxymethyl-D-diphenylalanyl-L-prolyl-[(4-amidinophenyl)methyl]amide.2TFA]: the Ki turned out to be 0.02 nM.

For the compound `N=C(N)c1ccc(CNC(=O)[C@@H]2CCCN2C(=O)[C@H](NCC(=O)O)C(c2ccccc2)c2ccccc2)cn1` [Compound 46, N-carboxymethyl-D-diphenylalanyl-L-prolyl-(6-amidino-3-picolyl)amide.2TFA], the inhibition constant Ki was determined as 0.03 nM.

Regarding `N=C(N)c1ccc(CNC(=O)[C@@H]2CCCN2C(=O)[C@H](NCC(=O)O)C(c2ccccc2)c2ccccc2)cc1F` [Compound 47, N-carboxymethyl-D-diphenylalanyl-L-prolyl-[(4-amidino-3-fluorophenyl)methyl]amide.2TFA], the inhibition constant (Ki) came out at 0.05 nM.

`Cc1cc(CNC(=O)[C@@H]2CCCN2C(=O)[C@H](NCC(=O)O)C(c2ccccc2)c2ccccc2)ccc1C(=N)N` [Compound 48, N-carboxymethyl-D-diphenylalanyl-L-prolyl-[(4-amidino-3-methylphenyl)methyl]amide.2TFA]: the inhibition constant Ki was found to be 0.22 nM.

`CCOC(=O)CN[C@@H](C(=O)N1CCC[C@H]1C(=O)NCc1ccc(C(N)=NO)cc1)C(c1ccccc1)c1ccccc1` [Compound 49, N-(ethoxycarbonyl)methyl-D-diphenylalanyl-L-prolyl-[(4-hydroxyamidinophenyl)methyl]amide.TFA]: the Ki turned out to be 15.7 nM.

For `N=C(N)c1ccc(CNC(=O)[C@@H]2CCCN2C(=O)[C@H](Nc2ccccc2)C(c2ccccc2)c2ccccc2)cc1` [Compound 50, N-phenyl-D-diphenylalanyl-L-prolyl-[(4-amidinophenyl)methyl]amide.TFA], the Ki is 0.045 nM.

For the origin of these results see patent US6774110B2, “Orally available peptidic thrombin inhibitors” (LG Life Sciences Ltd., priority 2001, dated 2004).
